Our source for the IC50 values is patent US20220153734A1, “Pyrazolopyridine Compounds For IRE1 Inhibition” (Optikira, LLC, priority 2019, published 2022).

One assay addresses T1, IRE1α (Homo sapiens, UniProt O75460).
T1 construct: purchased Signal Chem E31-11G
Description: Biochemical assay: inhibition of RNase activity of IRE1α. The conditions noted are these: enzyme 0.325 nM, substrate 100 nM, 20 minutes. The procedure: Biochemical Assay: Inhibition of RNase Activity of IRE1α
The RNase reactions were performed in 384 well black ProxiPlate-384 Plus plates (PERKIN Elmer) using 50 mM Tris assay buffer with 0.5 mM MgCl2, 10 mM KCl, 0.03% Tween, 2 mM DTT and 1% DMSO. Test compounds were prepared on the day of assay and dispensed using D300 digital dispenser as a 10-point ½ log dilution series in duplicate, normalized to a final DMSO concentration of […]. Test compounds were pre-incubated for 30 min at room temperature with IRE1α kinase (E31-11G from Signal Chem) in 2.5 μL of assay buffer. Then 2.5 μl of assay buffer containing substrate (5′ Alexa Fluor 647-rCrArU rGrUrC rCrGrC rArGrC rGrCrArUrG-Iowa Black RQ quencher 3′) added, giving a final concentration of enzyme of 0.325 nM and of substrate of 100 nM. After 20 minutes incubation at room temperature the reactions were stopped by added 5 μL of 5M urea, incubated at room temperature for 10 minutes and fluorescence measured on a plate reader (EnVision, PerkinElmer). IC50 values calculated by fitting a sigmoidal curve to percent inhibition of control versus compound concentration.

Assay [1] deals with ARPE-19 cells stably expressing XBP1 (a.a. 1-376). The assay can be described thus: Cellular XBP1 splicing assay (NanoLuc luciferase, thapsigargin). The class given is cell-based. To be noted: thapsigargin 150 nM. Put shortly: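 ARPE-19 cells carrying an XBP1(1-376)-NanoLuc splicing reporter were pretreated with compound (10-point ½-log series, 0.117% DMSO) for 30 min, then stressed with 150 nM thapsigargin for 4 h at 37° C. Luminescence was read, and IC50 values came from sigmoidal fits of percent inhibition of control.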

T1 sequence (O75460 468-977 limits assumed): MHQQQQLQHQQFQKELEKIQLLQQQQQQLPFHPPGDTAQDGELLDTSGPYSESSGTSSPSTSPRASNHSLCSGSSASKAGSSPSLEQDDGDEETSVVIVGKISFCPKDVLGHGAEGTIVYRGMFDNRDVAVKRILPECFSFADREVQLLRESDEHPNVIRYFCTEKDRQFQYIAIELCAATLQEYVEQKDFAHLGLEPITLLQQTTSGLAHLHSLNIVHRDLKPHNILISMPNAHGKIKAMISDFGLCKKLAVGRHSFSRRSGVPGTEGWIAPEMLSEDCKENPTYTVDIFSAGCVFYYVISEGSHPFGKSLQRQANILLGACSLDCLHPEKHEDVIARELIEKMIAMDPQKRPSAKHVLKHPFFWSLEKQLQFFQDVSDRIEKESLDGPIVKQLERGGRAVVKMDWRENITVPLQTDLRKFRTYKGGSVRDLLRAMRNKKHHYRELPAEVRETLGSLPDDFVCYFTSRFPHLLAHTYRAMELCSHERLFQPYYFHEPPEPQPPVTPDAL

In general, IC50 refers to the midpoint of a concentration-inhibition curve. A higher IC50 goes with weaker potency. Turning to `Nc1ncc(C2=CCC(NC3COC3)CC2)c2c1c(-c1ccc(NS(=O)(=O)c3ccccc3Cl)c(F)c1)nn2C1CC1` (single isomer, unassigned) [Compound B19, N-(4-(4-amino-1-cyclopropyl-7-(4-(oxetan-3-ylamino)cyclohex-1-en-1-yl)-1H-pyrazolo[4,3-c]pyridin-3-yl)-2-fluorophenyl)-2-chlorobenzenesulfonamide], the IC50 against IRE1α worked out at 3.5 nM; in assay [1] (4 hour), 20 nM.
For `COCCN[C@H]1CC[C@H](c2cnc(N)c3c(-c4ccc(NS(=O)(=O)c5ccccc5F)cc4F)nn(C(C)C)c32)CC1` [Compound A18], the IC50 stood at 12 nM against IRE1α and 37 nM in assay [1] (Homo sapiens, ARPE-19, 4 h).
Taken in the same sequence, the figures for `COCCN[C@H]1CC[C@H](c2cnc(N)c3c(-c4cc(F)c(NS(=O)(=O)Cc5ccc(F)cc5)cc4F)nn(C(C)C)c32)CC1` [Compound A17, N-(4-(4-amino-1-isopropyl-7-((1r,4r)-4-((2-methoxyethyl)amino)cyclohexyl)-1H-pyrazolo[4,3-c]pyridin-3-yl)-2,5-difluorophenyl)-1-(4-fluorophenyl)methanesulfonamide] were 0.9 nM and 12 nM.
On to `COCC(C)NC1CC=C(c2cnc(N)c3c(-c4ccc(NS(=O)(=O)Cc5ccccc5Cl)c(F)c4)nn(C(C)C)c23)CC1` (single isomer, unassigned) [Compound B4, N-(4-(4-amino-1-isopropyl-7-(4-((1-methoxypropan-2-yl)amino)cyclohex-1-en-1-yl)-1H-pyrazolo[4,3-c]pyridin-3-yl)-2-fluorophenyl)-1-(2-chlorophenyl)methanesulfonamide], for which the IC50 on IRE1α was 1.2 nM; in assay [1] (Homo sapiens, ARPE-19, 4 h), 6.8 nM.
In the same order, the values of `COCCN(CCOC)[C@H]1CC[C@H](c2cnc(N)c3c(-c4cc(F)c(NS(=O)(=O)c5cc(OC)ccc5F)cc4F)nn(C(C)C)c32)CC1` [Compound A27, N-(4-(4-amino-7-((1r,4r)-4-(bis(2-methoxyethyl)amino)cyclohexyl)-1-isopropyl-1H-pyrazolo[4,3-c]pyridin-3-yl)-2,5-difluorophenyl)-2-fluoro-5-methoxybenzenesulfonamide] are 13 nM and 13 nM.
Taken in the same sequence, the figures for `CC(C)n1nc(-c2ccc(NS(=O)(=O)c3ccccc3F)c(F)c2)c2c(N)ncc([C@H]3CC[C@@H](NC4COC4)CC3)c21` [Compound A12, N-(4-(4-amino-1-isopropyl-7-((1s,4s)-4-(oxetan-3-ylamino)cyclohexyl)-1H-pyrazolo[4,3-c]pyridin-3-yl)-2-fluorophenyl)-2-fluorobenzenesulfonamide] were 440 nM and 1400 nM.
Taken in the same sequence, the figures for `CC(C)n1nc(-c2cc(F)c(NS(=O)(=O)c3ccccc3F)cc2F)c2c(N)ncc([C@H]3CC[C@H](N4CCOCC4)CC3)c21` [Compound A3] were 16 nM and 15 nM.
For `CC(C)n1nc(-c2ccc(NS(=O)(=O)c3ccccc3Cl)c(F)c2)c2c(N)ncc(C3=CCC(NC4CC(F)(F)C4)CC3)c21` (single isomer, unassigned) [Compound B51], the IC50 against IRE1α was 31 nM; in assay [1] (4 hour), 190 nM.
On to `COCCN[C@H]1CC[C@H](c2cnc(N)c3c(-c4cc(F)c(NS(=O)(=O)c5cccc(OC)c5F)cc4F)nn(C(C)C)c32)CC1` [Compound A7, N-(4-(4-amino-1-isopropyl-7-((1r,4r)-4-((2-methoxyethyl)amino)cyclohexyl)-1H-pyrazolo[4,3-c]pyridin-3-yl)-2,5-difluorophenyl)-2-fluoro-3-methoxybenzenesulfonamide], for which the IC50 was found to be 2.9 nM on IRE1α and 24 nM in assay [1] (Homo sapiens, ARPE-19, 4 h).
In the case of `CC(C)n1nc(-c2ccc(NS(=O)(=O)Cc3ccccc3F)c(F)c2)c2c(N)ncc(C3=CCC(NC4COC4)CC3)c21` (single isomer, unassigned) [Compound B1, N-(4-(4-amino-1-isopropyl-7-(4-(oxetan-3-ylamino)cyclohex-1-en-1-yl)-1H-pyrazolo[4,3-c]pyridin-3-yl)-2-fluorophenyl)-1-(2-fluorophenyl)methanesulfonamide], the IC50 on IRE1α was 2.4 nM; in assay [1] (4 hour) it was 30 nM.
`COCCN[C@H]1CC[C@H](c2cnc(N)c3c(-c4cc(F)c(NS(=O)(=O)Cc5ccccc5Cl)cc4F)nn(C(C)C)c32)CC1` [Compound A20, N-(4-(4-amino-1-isopropyl-7-((1r,4r)-4-((2-methoxyethyl)amino)cyclohexyl)-1H-pyrazolo[4,3-c]pyridin-3-yl)-2,5-difluorophenyl)-1-(2-chlorophenyl)methanesulfonamide]: the 50% inhibitory concentration (IC50) on IRE1α was 1.2 nM; in assay [1] (Homo sapiens, ARPE-19, 4 h) it was 13 nM.
In the same order, the values of `COCCN[C@H]1CC[C@H](c2cnc(N)c3c(-c4cc(F)c(NS(=O)(=O)c5c(F)cccc5F)cc4F)nn(C(C)C)c32)CC1` [Compound A23, N-(4-(4-amino-1-isopropyl-7-((1r,4r)-4-((2-methoxyethyl)amino)cyclohexyl)-1H-pyrazolo[4,3-c]pyridin-3-yl)-2,5-difluorophenyl)-2,6-difluorobenzenesulfonamide] are 9.7 nM and 160 nM.
For the compound `CCn1nc(-c2ccc(NS(=O)(=O)Cc3ccccc3F)c(F)c2)c2c(N)ncc(C3=CCC(NC4COC4)CC3)c21` (single isomer, unassigned) [Compound B27, N-(4-(4-amino-1-ethyl-7-(4-(oxetan-3-ylamino)cyclohex-1-en-1-yl)-1H-pyrazolo[4,3-c]pyridin-3-yl)-2-fluorophenyl)-1-(2-fluorophenyl)methanesulfonamide], the values for the IC50 (on IRE1α; in assay [1] (4 hour)) were 5.9 nM and 78 nM, respectively.
Turning to `CC(C)n1nc(-c2cc(F)c(NS(=O)(=O)c3ccccc3F)cc2F)c2c(N)ncc([C@H]3CC[C@H](N(C)C4COC4)CC3)c21` [Compound A38], the IC50 at IRE1α came to 12 nM; in assay [1] (Homo sapiens, ARPE-19, 4 h), 13 nM.
For the compound `CC(C)n1nc(-c2ccc(NS(=O)(=O)c3cc(Cl)ccc3F)c(F)c2)c2c(N)ncc(C3=CCC(NC4COC4)CC3)c21` (single isomer, unassigned) [Compound B14, N-(4-(4-amino-1-isopropyl-7-(4-(oxetan-3-ylamino)cyclohex-1-en-1-yl)-1H-pyrazolo[4,3-c]pyridin-3-yl)-2-fluorophenyl)-5-chloro-2-fluorobenzenesulfonamide], the IC50 at IRE1α is 6.8 nM; in assay [1] (4 hour), 160 nM.
Turning to `COCCN[C@H]1CC[C@H](c2cnc(N)c3c(-c4cc(F)c(NS(=O)(=O)c5cc(OC)ccc5Cl)cc4F)nn(C(C)C)c32)CC1` [Compound A2, N-(4-(4-amino-1-isopropyl-7-((1r,4r)-4-((2-methoxyethyl)amino)cyclohexyl)-1H-pyrazolo[4,3-c]pyridin-3-yl)-2,5-difluorophenyl)-2-chloro-5-methoxybenzenesulfonamide], the IC50 on IRE1α was found to be 4.6 nM; in assay [1] (Homo sapiens, ARPE-19, 4 h), 3 nM.
In the same order, the values of `COCC(C)NC1CC=C(c2cnc(N)c3c(-c4ccc(NS(=O)(=O)c5ccccc5Cl)c(F)c4)nn(C(C)C)c23)CC1` (stereo not drawn) [Compound B3] are 7 nM and 11 nM.
`Nc1ncc([C@H]2CC[C@H](NC3COC3)CC2)c2c1c(-c1ccc(NS(=O)(=O)Cc3ccccc3Cl)c(F)c1)nn2C1CC1` [Compound A55, N-(4-(4-amino-1-cyclopropyl-7-((1r,4r)-4-(oxetan-3-ylamino)cyclohexyl)-1H-pyrazolo[4,3-c]pyridin-3-yl)-2-fluorophenyl)-1-(2-chlorophenyl)methanesulfonamide]: the IC50 against IRE1α was 0.7 nM; in assay [1] (Homo sapiens, ARPE-19, 4 h) it was 7.2 nM.
As to `COCCN[C@H]1CC[C@H](c2cnc(N)c3c(-c4ccc(NS(=O)(=O)c5ccccc5F)c(F)c4)nn(C(C)C)c32)CC1` [Compound A6, N-(4-(4-amino-1-isopropyl-7-((1r,4r)-4-((2-methoxyethyl)amino)cyclohexyl)-1H-pyrazolo[4,3-c]pyridin-3-yl)-2-fluorophenyl)-2-fluorobenzenesulfonamide], the IC50 stood at 2.6 nM against IRE1α and 2.7 nM in assay [1] (Homo sapiens, ARPE-19, 4 h).
Turning to `CCn1nc(-c2ccc(NS(=O)(=O)Cc3ccccc3Cl)c(F)c2)c2c(N)ncc(C3=CCC(NC4COC4)CC3)c21` (single isomer, unassigned) [Compound B29, N-(4-(4-amino-1-ethyl-7-(4-(oxetan-3-ylamino)cyclohex-1-en-1-yl)-1H-pyrazolo[4,3-c]pyridin-3-yl)-2-fluorophenyl)-1-(2-chlorophenyl)methanesulfonamide], the IC50 on IRE1α was 7.4 nM; in assay [1] (4 hour) it was 68 nM.
Take `COCCN[C@H]1CC[C@H](c2cnc(N)c3c(-c4cc(F)c(NS(=O)(=O)c5ccccc5Cl)cc4F)nn(C(C)C)c32)CC1` [Compound A19, N-(4-(4-amino-1-isopropyl-7-((1r,4r)-4-((2-methoxyethyl)amino)cyclohexyl)-1H-pyrazolo[4,3-c]pyridin-3-yl)-2,5-difluorophenyl)-2-chlorobenzenesulfonamide]: the concentration for half-maximal inhibition (IC50) came to 6.1 nM at IRE1α and 4 nM in assay [1] (Homo sapiens, ARPE-19, 4 h).
